What was measured:
ECE1 = biological target: T1, ECE1 (Homo sapiens, UniProt P42892); experiment: QFS assay of Aβ-degrading enzymes: ECE1 (Example 6); format: biochemical
T1 construct: purchased R & D systems 1784-ZN-010
T1 sequence (P42892 1-770): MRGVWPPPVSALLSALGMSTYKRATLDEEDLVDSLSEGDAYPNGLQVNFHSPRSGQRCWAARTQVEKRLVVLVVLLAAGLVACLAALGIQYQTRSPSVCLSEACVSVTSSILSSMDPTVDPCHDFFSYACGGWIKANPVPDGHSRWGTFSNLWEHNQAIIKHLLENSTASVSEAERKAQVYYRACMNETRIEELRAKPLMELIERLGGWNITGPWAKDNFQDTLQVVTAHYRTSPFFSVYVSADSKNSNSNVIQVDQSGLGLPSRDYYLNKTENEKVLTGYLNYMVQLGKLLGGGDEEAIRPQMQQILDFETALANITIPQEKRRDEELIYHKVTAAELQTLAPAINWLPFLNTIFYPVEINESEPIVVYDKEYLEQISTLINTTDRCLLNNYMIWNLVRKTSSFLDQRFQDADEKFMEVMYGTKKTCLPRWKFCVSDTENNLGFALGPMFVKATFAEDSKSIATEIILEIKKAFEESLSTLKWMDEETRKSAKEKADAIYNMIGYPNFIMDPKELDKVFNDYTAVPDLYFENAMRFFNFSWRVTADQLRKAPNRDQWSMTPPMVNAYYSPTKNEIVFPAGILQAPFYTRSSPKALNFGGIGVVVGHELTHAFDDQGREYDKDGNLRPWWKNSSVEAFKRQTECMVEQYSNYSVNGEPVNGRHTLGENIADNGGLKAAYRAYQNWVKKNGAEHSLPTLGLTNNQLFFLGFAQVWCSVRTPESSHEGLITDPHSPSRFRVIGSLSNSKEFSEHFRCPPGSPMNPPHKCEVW
Procedure: Plate reader-based enzyme assays were performed using a quenched fluorescent substrate (QFS) in a 96-well format using a SpectraMAX M4 Microplate reader (Molecular Devices). The increase in fluorescence following addition of QFS (40 μM) was taken as evidence of enzyme activity. Fluorescence was monitored over 2 h at 37° C. using κEx=320 nm and λEm=405 nm. Assays were conducted in black 96-well plates. Specific enzyme activity was expressed as a rate of substrate cleavage calculated using a standard curve of 7-methoxy-coumarin-4-acetic acid.
In all plate reader-based enzyme assays using QFS, the reaction rate (μmol of substrate cleaved/min) was calculated using linear regression analysis (GraphPad Prism software version 8.01). The reaction rates calculated were used to generate the enzyme kinetic parameters Vmax and Km through non-linear regression analysis (GraphPad Prism software, version 8.01; Michaelis-Menten equation). Where indicated, enzyme activity in the presence of peptide was expressed as a % of the enzyme alone. Data were expressed as mean±SEM and statistical significance was determined using t-tests or one-way ANOVAs followed by Tukey's post-hoc test. P<0.05 was considered as statistically significant. […]
SEQ ID NO:2 was assessed in a QFS assay against enzymes NEP, ECE1, ECE2, ACE1, ACE2, IDE and MMP-2 using the method in Example 2 and the following procedure. […]

STZ diabetic mouse model = experiment: STZ diabetic mouse model, kidney inflammation and fibrosis, ND and STZ mice (Example 14); format: in vivo; conditions: for post treatment blood glucose compared with vehicle: 1 mg/kg s.c. osmotic minipump
Procedure: Mice were divided into four groups, two groups of mice remained untreated (ND) and two groups of mice were treated with STZ (150 mg/kg) by i.p. injection 1 week before starting treatment with SEQ ID NO. 2 or vehicle. Before treatment with SEQ ID NO. 2 or vehicle began, one week post STZ administration, 24 hour urine and blood samples were taken and blood glucose was assessed in all mice. The two ND groups and the two STZ treatment groups were then treated with either vehicle (10% DMSO/PBS) only or SEQ ID NO: 2 (1 mg/kg) subcutaneously by osmotic minipump. The mice were then monitored for 3 months before sacrifice. Monitoring included assessing the weight of each animal every day, taking blood samples biweekly and 24 hour urine samples at 1, 2 and 3 months post treatment. 24 hour urine samples were collected from mice placed in metabolic cages. At 3 months after treatment, a blood sample was collected (cardiac bleed) and the animals were sacrificed. Kidney and heart tissues were collected and weight and the tissues processed for in vitro analysis.
Urine samples were analysed for urinary albumin ELISA. The volume of urine was measured and then samples were diluted by 1:8000 with water. The samples were incubated for 1 h in antibody-coated 96-well plates (in duplicate). After incubation, a Development solution (100 μL) containing sandwich antibody was added to the wells and the samples incubated for 10 minutes in the dark. Stop solution (100 μL) was added and the optical density was measured at 450 nm.
The kidney tissue samples were analysed for fibrosis using Masson's trichrome staining. 4 μm-thick paraffin-embedded kidneys were sectioned. After dewaxing, sections were post-fixed in Bouin's fixative overnight. The slides were stained in Weigert's iron haematoxylin followed by Biebrich scarlet-acid fuchsin solution. The slides were differentiated in phosphomolybdic-phosphotungstic acid solution and then further stained in aniline blue solution. After differentiation in 1% acetic acid solution the slides were mounted with mounting medium and the sections were imaged on an Aperio Slide Scanner at ×20 magnification. The images were analysed on ImageJ.
Kidney samples in mice sacrificed one month after treatment were also analysed for the presence of IL-6 by western blot analysis. Homogenised kidney samples were heat-denatured and separated using SDS-PAGE. The membranes were incubated with IL-6 primary antibody at 1:500 dilution, followed by incubation with a secondary antibody (goad anti-rabbit antibody at 1:16000) and developed the following day using enhanced chemiluminescence (ECL) as a substrate. β-actin was used as a loading control.

H-SLFELGKMIL-NH2 [SEQ ID NO:2, H2N-SLFELGKMIL-NH2]
ECE1 activity compared with respective enzyme alone (ECE1; peptide 2 μM (FIG. 2c)): did not increase
ECE1 activity, concentration dependence (ECE1; peptide 0.9-26 μM): did not affect
post treatment blood glucose compared with vehicle (STZ diabetic mouse model; ND mice): similar
urine volume per day (STZ diabetic mouse model; ND mice, before and after treatment): the same before or after treatment
kidney:bodyweight ratio (STZ diabetic mouse model; ND mice, peptide or vehicle): remained the same
urinary albumin (STZ diabetic mouse model; ND mice, peptide or vehicle): remained the same
kidney:bodyweight ratio, increase compared with STZ mice treated with vehicle (STZ diabetic mouse model; STZ mice): even more
kidney IL-6 expression compared with vehicle treated STZ mice (STZ diabetic mouse model; STZ mice sacrificed one month after treatment, western blot): lower
post treatment blood glucose compared with vehicle (STZ diabetic mouse model; STZ mice): marginally lower
urinary albumin (STZ diabetic mouse model; STZ mice, 2 and 3 months post treatment, with either vehicle or peptide): increased
renal cortical fibrosis compared to STZ mice treated with vehicle (STZ diabetic mouse model; STZ mice, Masson's trichrome staining): tendency to be lower
urine volume per day (STZ diabetic mouse model; STZ mice, whether treated with peptide or vehicle): increased urine volume per day

Reference: US20240002441A1, “PEPTIDES AND USES THEREOF IN MODULATION OF AMYLOID-BETA PROTEIN DEGRADING PROTEASES” (priority 2020, published 2024)
